Source: ChEMBL document CHEMBL4765241, “Identification and Preclinical Pharmacology of ((1 R,3 S)-1-Amino-3-(( S)-6-(2-methoxyphenethyl)-5,6,7,8-tetrahydronaphthalen-2-yl)cyclopentyl)methanol (BMS-986166): A Differentiated Sphingosine-1-phosphate Receptor 1 (S1P) Modulator Advanced into Clinical Trials” (J Med Chem, 2019)
Active and inactive are the calls of the source. The rule behind the calls is not given here.

Columns and labels:
Rattus norvegicus [1] = assay: Reduction in circulating lymphocytes in Lewis rat blood at 2 mg/kg, po measured at 4 hrs by hematology analyzer based analysis; format: functional; parameters: scale not given: the % may be the effect or the level left
[2] = Drug metabolism in Lewis rat blood assessed as concentration of parent compound at 2 mg/kg, po measured at 4 hrs by LC-MS/MS analysis; format: ADME, organism-based; conditions: read-out: Ct
Rattus norvegicus [3] = assay: Reduction in circulating lymphocytes in Lewis rat blood at 2 mg/kg, po measured at 24 hrs by hematology analyzer based analysis; format: functional; parameters: scale not given: the % may be the effect or the level left
[4] = Drug metabolism in Lewis rat blood assessed as concentration of parent compound at 2 mg/kg, po measured at 24 hrs by LC-MS/MS analysis; format: ADME, organism-based; conditions: read-out: Ct
[5] = Pulmonary toxicity in Lewis rat assessed as elevation of BAL protein level at 3 mg/kg by advia1800 chemistry analyzer; format: organism-based; conditions: in vivo
[6] = Pulmonary toxicity in Lewis rat assessed as elevation of BAL protein level at 10 mg/kg by advia1800 chemistry analyzer; format: organism-based; conditions: in vivo
[7] = Clearance in Sprague-Dawley rat at 1 mg/kg, iv; format: ADME, organism-based; conditions: in vivo
[8] = Clearance in Beagle dog at 1 mg/kg, iv; format: ADME, organism-based, Canis lupus familiaris; conditions: in vivo
[9] = Volume of distribution at steady state in Sprague-Dawley rat at 1 mg/kg, po or 1 mg/kg, iv; format: ADME, organism-based; conditions: in vivo, read-out: Vdss
[10] = Volume of distribution at steady state in Beagle dog at 0.3 mg/kg, po or 1 mg/kg, iv; format: ADME, organism-based, Canis lupus familiaris; conditions: in vivo, read-out: Vdss
[11] = Volume of distribution at steady state in cynomolgus monkey at 1 mg/kg, po or 1 mg/kg, iv; format: ADME, organism-based, Macaca fascicularis; conditions: in vivo, read-out: Vdss
[12] = Terminal half-life in beagle dog at 1 mg/kg, iv; format: ADME, organism-based, Canis lupus familiaris; conditions: in vivo, read-out: beta t1/2 (converted)
[13] = Oral bioavailability in beagle dog at 0.3 mg/kg; format: ADME, organism-based, Canis lupus familiaris; conditions: in vivo
[14] = Oral bioavailability in cynomolgus monkey at 1 mg/kg; format: ADME, organism-based, Macaca fascicularis; conditions: in vivo
[15] = Tmax in cynomolgus monkey at 1 mg/kg, po or 1 mg/kg, iv; format: ADME, organism-based, Macaca fascicularis; conditions: in vivo
[16] = AUC ratio in orally dosed Sprague-Dawley rat blood assessed as phosphate metabolite to parent compound; format: ADME, organism-based; conditions: in vivo, po
[17] = AUC ratio in orally dosed cynomolgus monkey blood assessed as phosphate metabolite to parent compound; format: ADME, organism-based, Macaca fascicularis; conditions: in vivo, po
Cytochrome P450 2C8 = target: T1, Cytochrome P450 2C8 (Homo sapiens, UniProt P10632); assay: Inhibition of CYP2C8 (unknown origin); format: ADME
T1 sequence (P10632 whole entry): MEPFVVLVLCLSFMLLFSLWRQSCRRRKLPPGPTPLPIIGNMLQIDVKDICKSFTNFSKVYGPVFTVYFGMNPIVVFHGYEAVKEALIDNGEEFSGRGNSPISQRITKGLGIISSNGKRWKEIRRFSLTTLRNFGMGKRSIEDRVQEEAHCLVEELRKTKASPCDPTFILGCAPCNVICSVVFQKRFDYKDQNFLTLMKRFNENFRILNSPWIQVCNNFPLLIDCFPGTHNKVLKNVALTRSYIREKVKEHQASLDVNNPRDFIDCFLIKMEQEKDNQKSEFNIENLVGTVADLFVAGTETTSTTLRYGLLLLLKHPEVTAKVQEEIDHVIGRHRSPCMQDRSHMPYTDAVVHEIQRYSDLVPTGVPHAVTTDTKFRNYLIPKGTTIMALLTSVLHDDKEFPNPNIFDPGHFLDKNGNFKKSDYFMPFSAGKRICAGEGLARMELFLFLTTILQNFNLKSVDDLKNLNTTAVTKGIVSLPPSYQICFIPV

[18] = Protein binding in human assessed as bound fraction; format: ADME; conditions: read-out: PB
[19] = Protein binding in rat assessed as bound fraction; format: ADME; conditions: read-out: PB
[20] = Protein binding in cynomolgus monkey assessed as bound fraction; format: ADME, Macaca fascicularis; conditions: read-out: PB
[21] = Protein binding in dog assessed as bound fraction; format: ADME, Canis lupus familiaris; conditions: read-out: PB
[22] = Metabolic stability in human liver microsomes assessed as half-life measured upto 120 mins in presence of NADPH-generating system by LC/MS/MS analysis; format: ADME, Microsome
[23] = Metabolic stability in rat liver microsomes assessed as half-life measured upto 120 mins in presence of NADPH-generating system by LC/MS/MS analysis; format: ADME, Microsome
[24] = Metabolic stability in cynomolgus monkey liver microsomes assessed as half-life; format: ADME, Macaca fascicularis, Microsome
[25] = Dissociation constant, pKa of compound; format: physicochemical
[26] = Distribution coefficient, log D of compound at pH 6.5; format: physicochemical; conditions: octanol/water
Mus musculus [27] = assay: Immunosuppressive activity in MOG (35 to 55 residues)/pertussis toxin-induced experimental autoimmune encephalomyelitis C57BL/6 mouse model assessed as reduction in clinical scores for inflammation administered orally once daily starting from day 1 post immunization and measured thrice weekly until day 24; format: functional, organism-based; conditions: dose 0.1-0.5 mg/kg
Mus musculus [28] = assay: Immunosuppressive activity in MOG (35 to 55 residues)/pertussis toxin-induced experimental autoimmune encephalomyelitis C57BL/6 mouse model assessed as reduction in EAE clinical scores at 0.1 to 0.5 mg/kg, po QD starting from day 1 post immunization and observed at day 12 until day 24 relative to control; format: functional, organism-based; conditions: dose 0.1-0.5 mg/kg
Mus musculus [29] = assay: Antiarthritic activity in DBA/1 mouse model of collagen-induced arthritis assessed as reduction in clinical score administered orally once daily as single dose for 21 days; format: functional, organism-based; conditions: time 21.0 day
Mus musculus [30] = assay: Antiarthritic activity in DBA/1 mouse model of collagen-induced arthritis assessed as reduction in paw histological score administered orally once daily as single dose for 21 days; format: functional, organism-based; conditions: time 21.0 day
Mus musculus [31] = assay: Antiarthritic activity in DBA/1 mouse model of collagen-induced arthritis assessed as reduction in paw histological score at 0.5 mg/kg, po QD administered as single dose for 21 days; format: functional; parameters: scale not given: the % may be the effect or the level left; conditions: time 21 day
Mus musculus [32] = assay: Antiarthritic activity in DBA/1 mouse model of collagen-induced arthritis assessed as maximum efficacy causing reduction in paw histological score administered orally once daily as single dose for 21 days; format: functional; conditions: time 21 day
Mus musculus [33] = assay: Immunosuppressive activity in MOG (35 to 55 residues)/pertussis toxin-induced experimental autoimmune encephalomyelitis C57BL/6 mouse model assessed as maximum efficacy causing reduction in EAE clinical score administered orally once daily starting from day 1 post immunization and measured thrice weekly until day 24; format: functional
Rattus norvegicus [34] = assay: Drug metabolism in Lewis rat blood assessed as concentration of phosphate ester metabolite formation at 2 mg/kg, po measured at 4 hrs by LC-MS/MS analysis; conditions: in vivo

Q: With `COc1ccccc1CC[C@@H]1CCc2cc([C@H]3CC[C@](N)(CO)C3)ccc2C1` [UDIFITIMOD] as the compound, how does the Activity (Rattus norvegicus [1]) read?
A: 76%

Q: What about the concentration at 4 h [2] of the same compound?
A: 40 nM

Q: And the Activity (Rattus norvegicus [3])?
A: 81%

Q: What about the concentration at 24 h [4] of the same compound?
A: 30 nM

Q: And the Activity [5]?
A: 8.8 mg/dL

Q: And the Activity [6]?
A: 14 mg/dL

Q: What about the clearance [7] of the same compound?
A: 9.7 mL/min/kg

Q: What about the clearance [8] of the same compound?
A: 1.9 mL/min/kg

Q: What about the Vd [9] of the same compound?
A: 16 L/kg

Q: What about the Vd [10] of the same compound?
A: 21 L/kg

Q: And the Vd [11]?
A: 10 L/kg

Q: And the half-life [12]?
A: 165 h

Q: What about the bioavailability [13] of the same compound?
A: 61%

Q: What about the bioavailability [14] of the same compound?
A: 76%

Q: And the Tmax [15]?
A: 6 h

Q: What about the “Ratio AUC” value [16] of the same compound?
A: 5.2

Q: And the “Ratio AUC” value [17]?
A: 1

Q: What about the IC50 (Cytochrome P450 2C8) of the same compound?
A: 8.6 µM

Q: And the fraction unbound [18]?
A: < 0.001

Q: What about the fraction unbound [19] of the same compound?
A: < 0.001

Q: And the fraction unbound [20]?
A: < 0.001

Q: What about the fraction unbound [21] of the same compound?
A: < 0.001

Q: What about the half-life [22] of the same compound?
A: 4.03 h

Q: And the half-life [23]?
A: 1.62 h

Q: What about the half-life [24] of the same compound?
A: 1.83 h

Q: And the pKa [25]?
A: 9.5

Q: And the logD [26]?
A: 5.05

Q: What about the Activity (Mus musculus [27]) of the same compound?
A: Dose-dependent effect

Q: What about the Activity (Mus musculus [28]) of the same compound?
A: Active

Q: And the Activity (Mus musculus [29])?
A: Active

Q: What about the Activity (Mus musculus [30]) of the same compound?
A: Active

Q: What about the Activity (Mus musculus [31]) of the same compound?
A: 92%

Q: And the Emax (Mus musculus [32])?
A: 0.5 mg/kg/day

Q: What about the Emax (Mus musculus [33]) of the same compound?
A: 0.5 mg/kg/day

Q: What about the Drug metabolism (Rattus norvegicus [34]) of the same compound?
A: 180 nM
